Laboratory results as given in ChEMBL document CHEMBL1151298, “Plant anticancer agents XXIX. Cleomiscosin A from Simaba multiflora, Soulamea soulameoides, and Matayba arborescens” (1984).
≈ marks a conversion by molar mass, not a printed value.

Experiments:
KB = test: Cytotoxicity against human KB cells; type: functional; settings: read-out: ED50 (the source's name)
P388 = test: Cytotoxicity against mouse P388 cells; type: functional; settings: read-out: ED50 (the source's name)

`COc1cc([C@H]2Oc3c(OC)cc4ccc(=O)oc4c3O[C@@H]2CO)ccc1O` [CLEOMISCOSIN A] was tested, and the EC50 (KB) was 4.9 µg/mL (≈ 12.7 µM) and the EC50 (P388) was 3.8 µg/mL (≈ 9.84 µM).
